How the values were obtained:
giant foxtail = test: Test A pre-/postemergence herbicide test; type: in vivo, Setaria faberii; settings: for Foxtail, Giant plant response rating: Preemergence, visual rating on 0 to 100 scale (0 no effect, 100 complete control)
Outline: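 Greenhouse pot test with pre- and postemergence application of surfactant-containing solvent formulations. Postemergence plants were 2–10 cm, one- to two-leaf stage. Response scored visually after ~10 days, 0 (no effect) to 100 (complete control).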

rice = test: Test B flooded paddy test; type: in vivo, Oryza sativa; settings: 250 g ai/ha, Flood; scale of 0 to 100 where 0 is no effect and 100 is complete control
Outline: (§1)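 Plants grown to 2-leaf stage; pots flooded 3 cm above soil and compound applied directly into paddy water, depth held throughout. Visual rating against untreated controls after 13 to 15 days in greenhouse, 0 (no effect) to 100 (complete control).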

sedge, umbrella = test: Test B flooded paddy test; type: in vivo, Cyperus difformis; settings: 250 g ai/ha, Flood; scale of 0 to 100 where 0 is no effect and 100 is complete control
Outline: as §1

ducksalad = test: Test B flooded paddy test; type: in vivo, Heteranthera limosa; settings: 250 g ai/ha, Flood; scale of 0 to 100 where 0 is no effect and 100 is complete control
Outline: as §1

barnyardgrass = test: Test B flooded paddy test; type: in vivo, Echinochloa crus-galli; settings: 250 g ai/ha, Flood; scale of 0 to 100 where 0 is no effect and 100 is complete control
Outline: as §1

blackgrass = test: Test C pre-/postemergence herbicide test; type: in vivo, Alopecurus myosuroides
Outline: (§2)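 Greenhouse pots; formulation = non-phytotoxic solvent mix + surfactant. PRE onto seeds in loam:sand; POST at 1–4 leaves (2–18 cm) in peat moss/vermiculite medium. Read-out: visual % control vs untreated, day 13–15.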

nutsedge, yellow = test: Test C pre-/postemergence herbicide test; type: in vivo, Cyperus esculentus; settings: for Nutsedge, Yellow plant response rating: scale 0 to 100, 0 is no effect and 100 is complete control
Outline: as §2

pigweed = test: Test C pre-/postemergence herbicide test; type: in vivo, Amaranthus retroflexus; settings: for Pigweed plant response rating: scale 0 to 100, 0 is no effect and 100 is complete control
Outline: as §2

ragweed = test: Test C pre-/postemergence herbicide test; type: in vivo, Ambrosia elatior; settings: for Ragweed plant response rating: scale 0 to 100, 0 is no effect and 100 is complete control
Outline: as §2

oilseed rape = test: Test C pre-/postemergence herbicide test; type: in vivo, Brassica napus
Outline: as §2

waterhemp = test: Test C pre-/postemergence herbicide test; type: in vivo, Amaranthus rudis
Outline: as §2

oat, wild = test: Test C pre-/postemergence herbicide test; type: in vivo, Avena fatua
Outline: as §2

velvetleaf = test: Test C pre-/postemergence herbicide test; type: in vivo, Abutilon theophrasti; settings: for Velvetleaf plant response rating: scale 0 to 100, 0 is no effect and 100 is complete control
Outline: as §2

[1] = Postemergence, 125 g ai/ha, 0 to 100 scale, 0 no effect, 100 complete control
[2] = Postemergence, 500 g ai/ha, 0 to 100 scale (0 no effect, 100 complete control)
[3] = preemergence, 500 g ai/ha, 0 to 100 scale
[4] = Postemergence, 31 g ai/ha, scale 0 (no effect) to 100 (complete control)
[5] = Postemergence, 62 g ai/ha, scale 0 to 100 (0 no effect, 100 complete control)
[6] = Postemergence, 125 g ai/ha, scale 0 to 100 (0 no effect, 100 complete control)
[7] = Postemergence, 250 g ai/ha, scale 0 to 100 (0 no effect, 100 complete control)
[8] = Preemergence, 31 g ai/ha, scale 0 to 100, 0 is no effect and 100 is complete control
[9] = Preemergence, 62 g ai/ha, scale 0 to 100
[10] = Preemergence, 125 g ai/ha, scale 0 to 100 (0 no effect, 100 complete control)
[11] = Preemergence, 31 g ai/ha, scale 0 to 100 (0 no effect, 100 complete control)
[12] = Preemergence, 250 g ai/ha, scale 0 to 100 (0 no effect, 100 complete control)

SMILES: O=C1NCC(c2ccc(F)c(C(F)(F)F)c2)C1C(=O)Nc1ccccc1F (racemic) [Compound 76]
- Plant response rating, Foxtail, Giant (giant foxtail; [1]): 80
- Plant response rating, Foxtail, Giant (giant foxtail; [2]): 80
- Foxtail, Giant plant response rating (giant foxtail; 125 g ai/ha): 90
- Plant response rating, Foxtail, Giant (giant foxtail; [3]): 90
- Plant response rating, Rice (rice): 0
- Plant response rating, Sedge, Umbrella (sedge, umbrella): 0
- Plant response rating, Ducksalad (ducksalad): 90
- Plant response rating, Barnyardgrass (barnyardgrass): 0
- Plant response rating, Blackgrass (blackgrass; [4]): 0
- Plant response rating, Blackgrass (blackgrass; [5]): 0
- Plant response rating, Blackgrass (blackgrass; [6]): 0
- Plant response rating, Blackgrass (blackgrass; [7]): 10
- Blackgrass plant response rating (blackgrass; [8]): 50
- Plant response rating, Blackgrass (blackgrass; [9]): 50
- Plant response rating, Blackgrass (blackgrass; [10]): 80
- Plant response rating (scale of 0 to 100), Blackgrass (blackgrass; Preemergence, 250 g ai/ha): 80
- Plant response rating, Nutsedge, Yellow (nutsedge, yellow; [4]): 0
- Plant response rating, Nutsedge, Yellow (nutsedge, yellow; [5]): 0
- Plant response rating, Nutsedge, Yellow (nutsedge, yellow; [6]): 0
- Plant response rating, Nutsedge, Yellow (nutsedge, yellow; [7]): 0
- Nutsedge, Yellow plant response rating (nutsedge, yellow; Preemergence, 31 g ai/ha): 0
- Plant response rating, Nutsedge, Yellow (nutsedge, yellow; [9]): 0
- Plant response rating, Nutsedge, Yellow (nutsedge, yellow; [10]): 20
- Plant response rating (scale of 0 to 100), Nutsedge, Yellow (nutsedge, yellow; Preemergence, 250 g ai/ha): 55
- Plant response rating, Pigweed (pigweed; [4]): 5
- Plant response rating, Pigweed (pigweed; [5]): 10
- Plant response rating, Pigweed (pigweed; [6]): 10
- Plant response rating, Pigweed (pigweed; [7]): 30
- Plant response rating, Pigweed (pigweed; [9]): 0
- Plant response rating, Pigweed (pigweed; [10]): 0
- Plant response rating (scale of 0 to 100), Pigweed (pigweed; Preemergence, 250 g ai/ha): 40
- Plant response rating, Ragweed (ragweed; [4]): 25
- Plant response rating, Ragweed (ragweed; [5]): 40
- Plant response rating, Ragweed (ragweed; [6]): 40
- Plant response rating, Ragweed (ragweed; [7]): 55
- Plant response rating, Oilseed Rape (oilseed rape; [4]): 0
- Plant response rating, Oilseed Rape (oilseed rape; [5]): 0
- Plant response rating, Oilseed Rape (oilseed rape; [6]): 0
- Plant response rating, Oilseed Rape (oilseed rape; [7]): 10
- Oilseed Rape plant response rating (oilseed rape; [8]): 0
- Plant response rating, Oilseed Rape (oilseed rape; [9]): 0
- Plant response rating, Oilseed Rape (oilseed rape; [10]): 30
- Plant response rating (scale of 0 to 100), Oilseed Rape (oilseed rape; Preemergence, 250 g ai/ha): 75
- Plant response rating, Waterhemp (waterhemp; [4]): 0
- Plant response rating, Waterhemp (waterhemp; [5]): 5
- Plant response rating, Waterhemp (waterhemp; [6]): 5
- Plant response rating, Waterhemp (waterhemp; [7]): 10
- Waterhemp plant response rating (waterhemp; [8]): 50
- Plant response rating, Waterhemp (waterhemp; [9]): 50
- Plant response rating, Waterhemp (waterhemp; [10]): 50
- Plant response rating (scale of 0 to 100), Waterhemp (waterhemp; Preemergence, 250 g ai/ha): 60
- Plant response rating, Oat, Wild (oat, wild; [4]): 0
- Plant response rating, Oat, Wild (oat, wild; [5]): 0
- Plant response rating, Oat, Wild (oat, wild; [6]): 0
- Plant response rating, Oat, Wild (oat, wild; [7]): 0
- Plant response rating, Velvetleaf (velvetleaf; [4]): 0
- Plant response rating, Velvetleaf (velvetleaf; [5]): 0
- Plant response rating, Velvetleaf (velvetleaf; [6]): 0
- Plant response rating, Velvetleaf (velvetleaf; [7]): 0
- Velvetleaf plant response rating (velvetleaf; Preemergence, 31 g ai/ha): 0
- Plant response rating, Velvetleaf (velvetleaf; [9]): 0
- Plant response rating, Velvetleaf (velvetleaf; [10]): 25
- Plant response rating (scale of 0 to 100), Velvetleaf (velvetleaf; Preemergence, 250 g ai/ha): 35

SMILES: O=C1NCC(c2ccc3c(c2)OC(F)(F)O3)C1C(=O)Nc1cccc(F)c1F (stereo not drawn) [Compound 62]
- Plant response rating, Foxtail, Giant (giant foxtail; [1]): 80
- Plant response rating, Foxtail, Giant (giant foxtail; [2]): 80
- Foxtail, Giant plant response rating (giant foxtail; 125 g ai/ha): 80
- Plant response rating, Foxtail, Giant (giant foxtail; [3]): 90
- Plant response rating, Rice (rice): 0
- Plant response rating, Sedge, Umbrella (sedge, umbrella): 80
- Plant response rating, Ducksalad (ducksalad): 75
- Plant response rating, Barnyardgrass (barnyardgrass): 20
- Blackgrass plant response rating (blackgrass; [11]): 0
- Plant response rating, Blackgrass (blackgrass; [9]): 45
- Plant response rating, Blackgrass (blackgrass; [10]): 80
- Plant response rating, Blackgrass (blackgrass; [12]): 80
- Plant response rating, Nutsedge, Yellow (nutsedge, yellow; [9]): 10
- Plant response rating, Nutsedge, Yellow (nutsedge, yellow; [10]): 20
- Plant response rating, Pigweed (pigweed; [9]): 40
- Plant response rating, Pigweed (pigweed; [10]): 70
- Plant response rating, Ragweed (ragweed; [9]): 15
- Plant response rating, Ragweed (ragweed; [10]): 45
- Plant response rating, Oat, Wild (oat, wild; [9]): 40
- Plant response rating, Oat, Wild (oat, wild; [10]): 50
- Plant response rating, Velvetleaf (velvetleaf; [9]): 20
- Plant response rating, Velvetleaf (velvetleaf; [10]): 25

SMILES: O=C1NCC(c2cccc(Br)c2)C1C(=O)Nc1cccc(F)c1F (stereo not drawn) [Compound 64]
- Plant response rating, Foxtail, Giant (giant foxtail; [1]): 70
- Plant response rating, Foxtail, Giant (giant foxtail; [2]): 80
- Foxtail, Giant plant response rating (giant foxtail; 125 g ai/ha): 80
- Plant response rating, Foxtail, Giant (giant foxtail; [3]): 90
- Plant response rating, Rice (rice): 15
- Plant response rating, Sedge, Umbrella (sedge, umbrella): 40
- Plant response rating, Ducksalad (ducksalad): 80
- Plant response rating, Barnyardgrass (barnyardgrass): 0
- Blackgrass plant response rating (blackgrass; [11]): 0
- Plant response rating, Blackgrass (blackgrass; [9]): 5
- Plant response rating, Blackgrass (blackgrass; [10]): 5
- Plant response rating, Blackgrass (blackgrass; [12]): 30
- Plant response rating, Nutsedge, Yellow (nutsedge, yellow; [9]): 20
- Plant response rating, Nutsedge, Yellow (nutsedge, yellow; [10]): 20
- Plant response rating, Pigweed (pigweed; [9]): 0
- Plant response rating, Pigweed (pigweed; [10]): 30
- Plant response rating, Ragweed (ragweed; [9]): 0
- Plant response rating, Ragweed (ragweed; [10]): 30
- Plant response rating, Oat, Wild (oat, wild; [9]): 10
- Plant response rating, Oat, Wild (oat, wild; [10]): 10
- Plant response rating, Velvetleaf (velvetleaf; [9]): 10
- Plant response rating, Velvetleaf (velvetleaf; [10]): 10

SMILES: O=C1NCC(c2cccc(Br)c2)C1C(=O)Nc1ccccc1F (stereo not drawn) [Compound 66]
- Plant response rating, Foxtail, Giant (giant foxtail; [1]): 70
- Plant response rating, Foxtail, Giant (giant foxtail; [2]): 80
- Foxtail, Giant plant response rating (giant foxtail; 125 g ai/ha): 80
- Plant response rating, Foxtail, Giant (giant foxtail; [3]): 90
- Plant response rating, Rice (rice): 0
- Plant response rating, Sedge, Umbrella (sedge, umbrella): 50
- Plant response rating, Ducksalad (ducksalad): 75
- Plant response rating, Barnyardgrass (barnyardgrass): 0
- Blackgrass plant response rating (blackgrass; [8]): 0
- Plant response rating, Blackgrass (blackgrass; [9]): 0
- Plant response rating, Blackgrass (blackgrass; [10]): 0
- Plant response rating, Blackgrass (blackgrass; [12]): 20
- Nutsedge, Yellow plant response rating (nutsedge, yellow; Preemergence, 31 g ai/ha): 0
- Plant response rating, Nutsedge, Yellow (nutsedge, yellow; [9]): 0
- Plant response rating, Nutsedge, Yellow (nutsedge, yellow; [10]): 0
- Pigweed plant response rating (pigweed; Preemergence, 31 g ai/ha): 0
- Plant response rating, Pigweed (pigweed; [9]): 0
- Plant response rating, Pigweed (pigweed; [10]): 0
- Ragweed plant response rating (ragweed; Preemergence, 31 g ai/ha): 10
- Plant response rating, Ragweed (ragweed; [9]): 20
- Plant response rating, Ragweed (ragweed; [10]): 25
- Oat, Wild plant response rating (oat, wild; [8]): 0
- Plant response rating, Oat, Wild (oat, wild; [9]): 0
- Plant response rating, Oat, Wild (oat, wild; [10]): 0
- Velvetleaf plant response rating (velvetleaf; Preemergence, 31 g ai/ha): 10
- Plant response rating, Velvetleaf (velvetleaf; [9]): 20
- Plant response rating, Velvetleaf (velvetleaf; [10]): 25

SMILES: O=C1NCC(c2cccc(OC(F)(F)F)c2)C1C(=O)Nc1cccc(F)c1F (stereo not drawn) [Compound 68]
- Plant response rating, Foxtail, Giant (giant foxtail; [1]): 80
- Plant response rating, Foxtail, Giant (giant foxtail; [2]): 80
- Foxtail, Giant plant response rating (giant foxtail; 125 g ai/ha): 90
- Plant response rating, Foxtail, Giant (giant foxtail; [3]): 90
- Plant response rating, Rice (rice): 25
- Plant response rating, Sedge, Umbrella (sedge, umbrella): 70
- Plant response rating, Ducksalad (ducksalad): 90
- Plant response rating, Barnyardgrass (barnyardgrass): 40
- Blackgrass plant response rating (blackgrass; [8]): 0
- Plant response rating, Blackgrass (blackgrass; [9]): 60
- Plant response rating, Blackgrass (blackgrass; [10]): 60
- Plant response rating, Blackgrass (blackgrass; [12]): 80
- Nutsedge, Yellow plant response rating (nutsedge, yellow; Preemergence, 31 g ai/ha): 10
- Plant response rating, Nutsedge, Yellow (nutsedge, yellow; [9]): 10
- Plant response rating, Nutsedge, Yellow (nutsedge, yellow; [10]): 10
- Pigweed plant response rating (pigweed; Preemergence, 31 g ai/ha): 45
- Plant response rating, Pigweed (pigweed; [9]): 75
- Plant response rating, Pigweed (pigweed; [10]): 85
- Ragweed plant response rating (ragweed; Preemergence, 31 g ai/ha): 0
- Plant response rating, Ragweed (ragweed; [9]): 0
- Plant response rating, Ragweed (ragweed; [10]): 0
- Plant response rating, Oat, Wild (oat, wild; [10]): 0
- Velvetleaf plant response rating (velvetleaf; Preemergence, 31 g ai/ha): 10
- Plant response rating, Velvetleaf (velvetleaf; [9]): 10
- Plant response rating, Velvetleaf (velvetleaf; [10]): 10
